Assays:
TMR-α-casein [1] = assay: Protease assay by fluorescence polarization of TMR-α-casein substrate, commercial fluorescence spectrometer; type: biochemical; conditions: time course, varying enzyme concentrations (unit/mL); FIGS. 9A-9D
Protocol: Changes of fluorescence polarization FP were measured using the method and apparatus for measuring fluorescence polarization of the present invention, employing TMR-α-casein as a substrate, composed of TMR as a fluorescent probe and α-casein, a universal protein substrate reacted with various proteases.
First, TMR-α-casein, a fluorescently labeled substrate for proteases, was prepared by applying one of the well-known methods [Analytical Biochemistry (,1996) 243, 1-7] as follows.
10 mg/mL of α-casein (sigma) and 5 mg/mL of 5-carboxytetramethylrhodamine succinimidyl ester were mixed in 0.1 M sodium bicarbonate buffer solution (pH 9.0) for reaction at room temperature for two and a half hours. The resulting TMR-α-casein was purified by passing the reaction mixture over a HiTrap desalting column (Sephadex G-25 Amersham Bioscience), and used after quantitation of the amounts of protein and fluorescence.
Proteinase K, trypsin, papain and elastase were used as proteases to react at increasing concentrations. First, as a comparative example, the process that the TMR-α-casein substrate was degraded by the proteases was analyzed using a commercial fluorescence spectrometer (Perkin Elmer). […]

TMR-α-casein [2] = assay: On-chip protease assay by fluorescence polarization of TMR-α-casein substrate, lab-on-a-chip with optical chopper; type: biochemical; conditions: 1 μM TMR-α-casein final in channel; reaction time 5.1 seconds; FIGS. 10A-10D
Protocol: Next, the protease assays were carried out using an apparatus for measuring fluorescence polarization including the optical chopper of FIG. 2 on a lab-on-a-chip of glass composed of a channel 1 C1, in which substrates or enzymes flowed, and a channel 2 C2, in which the reaction occurred, the channels having a depth of 12 μm and a width of 79 μm as depicted in FIG. 8.
For on-chip protease assays, the substrates and the enzymes should mix completely prior to the enzyme reactions. […] […] Therefore, the reaction time was confirmed to be 5.1 seconds after mixing of the substrate with the enzymes.
Subsequently, to carry out the protease assays in the lab-on-a-chip,2 μM of TMR-α-casein (the final concentration in the channel was 1 μM) was placed in a substrate reservoir and the respective proteases were placed in an enzyme reservoir at increasing concentrations in the same manner as the comparative example. Then, the two substances were allowed to flow into a channel 2 C2, a main channel, to cause a reaction. Fluorescence polarization FP was then measured at the detection point, positioned 32 mm away from the junction, from which the substrates and the enzymes flowed in.
Again, it was noted that fluorescence polarization values plateaued when the concentration of the enzymes reached at the point generating a specific rate or more.

streptavidin [3] = biological target: T1, streptavidin (Streptomyces avidinii, UniProt P22629); assay: Fluorescence polarization of biotin/streptavidin complex in lab-on-a-chip microchannel, apparatus of FIG. 2 without optical chopper (Embodiment 2); type: binding
Protocol: Fluorescence polarization FP for the complex of biotin and streptavidin in a lab-on-a-chip was measured using the apparatus of FIG. 2, wherein the optical chopper was not inserted. In this Embodiment, a lab-on-a-chip made of glass and composed of a microchannel having a depth of 12 μm and a width of 79 um was used instead of the 100 μL cuvette. After filling 100 μM of tetramethylrhodamine TMR solution in the microchannel of the lab-on-a-chip using a vacuum pump, a G-factor value was obtained in the same manner described above in Embodiment 1. […] Subsequently, the above samples filled in the reservoirs 1 and 2 were injected into the microchannel using the vacuum pump 6 of the lab-on-a-chip to measure fluorescence polarizations FP for the samples at a detection point 5 of the lab-on-a-chip.
As a result, in case of (A), fluorescence polarization was measured 0.085; in case of (B), it was 0.097; in case of (C), it was 0.036; in case of (D), it was 0.040; and in case of (E), it was 0.064, which were deviated from the expectations of increases in fluorescence polarization FP as not increased as the complex of TMR-biotin and streptavidin was formed as shown in FIG. 6A.
Fluorescence polarizations were recalculated from the measured values by subtracting the offset values, the offset being measured in the microchannel when only the buffer solution was filled. […]

streptavidin [4] = biological target: T1, streptavidin; assay: Fluorescence polarization of biotin/streptavidin complex in lab-on-a-chip microchannel, apparatus of FIG. 2 with optical chopper (Embodiment 3); type: binding
Protocol: Fluorescence polarization for the complex of biotin and streptavidin was measured using the apparatus of FIG. 2 including the optical chopper of the invention. In this Embodiment, a lab-on-a-chip made of glass and composed of a microchannel having a depth of 12 μm and a width of 79 μm was used to measure fluorescence polarization for a complex of biomolecule-fluorescently labeled biomaterial.
For the measurement, the samples were respectively filled in the reservoir of the lab-on-a-chip as following three cases: (A) wherein 4 μM of tetramethylrhodamine TMR was filled in the reservoir; (B) wherein 4 μM of TMR-biotin was put into the reservoir; and (C) wherein 4 μM of TMR-biotin and 1 μM of streptavidin were filled in the reservoirs.
Fluorescence polarizations FP for the above samples were measured in the microchannel of the lab-on-a-chip using the apparatus of FIG. 2 including the optical chopper.
As a result, in case of (A), fluorescence polarization was measured 0.047; in case of (B), it was 0.062; and in case of (C), it was 0.240, which were increased the complex of TMR-biotin and streptavidin was formed as shown in FIG. 7A.

T1 sequence (P22629 25-183, species assumed): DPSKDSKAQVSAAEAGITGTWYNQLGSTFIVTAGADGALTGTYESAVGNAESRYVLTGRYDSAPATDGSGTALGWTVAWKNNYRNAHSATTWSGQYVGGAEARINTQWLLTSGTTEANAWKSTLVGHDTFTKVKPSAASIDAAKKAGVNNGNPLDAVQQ

trypsin
change of fluorescence polarization values of TMR-α-casein as the reaction proceeded (TMR-α-casein [1]): decreased | change of fluorescence polarization values of TMR-α-casein with enzyme concentration (TMR-α-casein [2]): decreased with increasing concentrations

CN(C)c1ccc2c(-c3ccccc3C(=O)[O-])c3ccc(N(C)C)cc3[o+]c2c1 [TMR, tetramethylrhodamine]
fluorescence polarization recalculated by subtracting the offset values (streptavidin [3]; 1.25 μM probe only in reservoir 1, buffer offset subtracted): 0.020 | fluorescence polarization (as measured, offset not subtracted) (streptavidin [3]; 1.25 μM probe only in reservoir 1, no chopper): 0.085 | fluorescence polarization (streptavidin [4]; 4 μM probe only, microchannel, optical chopper): 0.047

O=C(O)CCCC[C@@H]1SC[C@@H]2NC(=O)N[C@@H]21 [D-biotin]
change of fluorescence polarization by competitive inhibition of TMR-biotin/streptavidin binding (streptavidin [4]; increasing concentrations of D-biotin supplied to the complex (4 μM TMR-biotin, 1 μM streptavidin) in the microchannel, FIG. 7B): decreased with the increasing concentrations

elastase
change of fluorescence polarization values of TMR-α-casein as the reaction proceeded (TMR-α-casein [1]): decreased | change of fluorescence polarization values of TMR-α-casein with enzyme concentration (TMR-α-casein [2]): decreased with increasing concentrations
